Reference: patent publication US5652222A, “Selective inhibition of leukemic cell proliferation by bcr-abl antisense oligonucleotides” (Temple University-of The Commonwealth System of Higher …, priority 1993, dated 1997)

What was measured:
[1] = tested on: Philadelphia chromosome-positive blast cells of CML patients in blast crisis, L-6 (b2a2) type junction; assay: Colony formation of CML blast crisis patient cells expressing the b2a2 (L-6) junction; format: cell-based, human; details: for Number of Colonies, Antisense-treated: 40 μg/ml at start, 20 μg/ml 18 h later; for % Inhibition: number of colonies vs untreated
Experimental: Leukemia cells were obtained from the marrow of the posterior iliac crest of five CML patients in blast crisis. The cells were diluted 1:2 in Iscove's modified Dulbecco medium (IMDM) to form a cell suspension. Philadelphia chromosome-positive blast cells were isolated by Ficoll-Hypaque density gradient sedimentation to remove non-mononuclear cells. Accordingly, the bone marrow cell suspension was gently overlayed on a Histopaque density gradient (Sigma Chemical Co., St. Louis, Mo.) in a 2:1 ratio, and then spun down for 30 min. at 1500 rpm and 18° C. Cells remaining in the interface layer after centrifugation were collected using a Pasteur pipet, and washed with IMDM at 1000 rpm and […] for 10 min.
Cells plated into methyl cellulose semisolid media after 7-11 days of culture were recovered from the medium. Total RNA was isolated according to the procedure of Chomczynski et al, Anal. Biochem. 162, 156-159 (1987). The RNA ([…]) isolated from one patient having particularly exuberant cell growth was annealed with the 3' RT-PCR primer GCTTCACACC ATTCCCCATTGT (SEQ ID NO:10) complementary to 22 nucleotides of c-abl exon 2 for 30 minutes at 37° C. Following annealing of the 3' primer, the RNA was reverse transcribed with 500 units of Moloney murine leukemia virus reverse transcriptase at 37° C. for 1 hour. The reaction was stopped and the mixture diluted in 1 x Thermus aquaticus (Taq) polymerase buffer. A 5' primer, the 22 nucleotide oligomer CACAGCATTCCGCTGACCATCA (SEQ ID NO: 11) complementary to bcr exon 2 and additional c-abl exon 2 3' primer were added to a final concentration of 2 ng/μl each with 2.5 units of Taq polymerase for amplification of the cDNA fragments. Sixty cycles of PCR were performed in a Perkin Elmer Thermal Cycler by annealing at 55° C., synthesizing at 72° C. and denaturing at 95° C. The amplification product, corresponding to the b2a2 junction, was thereafter separated on a 2% agarose gel. The band containing the bcr-abl fragment was cut out and cleaned according to a standard technique utilizing a GENE-CLEAN™ kit (Bio 101, Inc.), cloned by blunt end ligation in the BLUESCRIPT SK vector (Stratagene Cloning Systems) linearized by SMA I digestion. Several individual clones were then sequenced using the SEQUENASE™ version 2.0 enzyme (United States Biochemical Corp., Cleveland, Ohio), according to the sequence protocol recommended by the manufacturer. Accordingly, the denatured bcr-abl DNA fragments were annealed with specific primers which flank the cloning site in the BLUESCRIPT SK vector, in the presence of SEQUENASE™ reaction buffer for 15 min. at 37° C. The primer-annealed fragments were incubated at room temperature with SEQUENASE™ version 2.0 enzyme and α-S^35 dAT at 37° C. Subsequently, labelled template-primer complexes were transferred to tubes containing A, T, C and G nucleotides (one nucleotide per tube) and incubated 5-30 min. at 37° C. The samples were then loaded on a previously prepared acrylamide gel, and run for approximately 10 hours. The sequencing gel was dryed, and the film exposed O/N. Sequence analysis of several of the individual clones identified the bcr-abl junction as having the cDNA sequence shown in FIG. 1 (SEQ ID NO:1). The arrow in the figure indicates the bcr-abl breakpoint junction, and the box delineates the 18 nucleotides corresponding to the junction, which forms a preferred target sequence for hybridization of antisense oligomer. The junction corresponds precisely to the L-6 type breakpoint reported by Shtivelman et al., Cell 47, 277 (1986), in which the bcr exon 2 is fused to c-abl exon 2.
In a similar manner, L-6 type junctions were identified in the remaining CML blast crisis patients by hybridization of RT-PCR amplification products derived from blast crisis CML RNA using a synthetic 18-mer GAAGGGCTTC TTCCTTAT (SEQ ID NO:3) specific for the 18-nucleotide target sequence of the L-6 bcr-abl junction. […]

[2] = tested on: BV173 cells (b2/a2); assay: Proliferation of BV173 cells expressing b2a2 junction; format: cell-based, human; details: in comparison to untreated control cells (FIG. 7)
Experimental: Amplification of the bcr-abl junction with a 5' primer corresponding to bcr exon 2, and a 3' primer corresponding to abl exon 2, followed by hybridization to an 18-mer specific for the b2/a2 or the b3/a2 junction identified the b2/a2 breakpoint in these cells (data not shown).
The sensitivity of the BV173 cells to b2/a2 antisense phosphorothioate oligodeoxynucleotides was assessed. Phosphorothioate oligodeoxynucleotides were prepared on either an Applied Biosystems Model 380B or 390Z Automated Synthesis instrument using conventional phosphoramidite monomers and manufacturer-recommended procedures, which included substitution of tetraethylthiuran (or an equivalent sulfur-donor reagent) for iodine-water-pyridine, […] reversed-phase preparative chromatography, detritylation, and obtaining the final product in the form of its sodium salt, all according to previously published methodology: Zon and Stec, in Oligonucleotides and Analogues A Practical Approach, F. Eckstein, Ed. (Oxford Univerisity Press, Oxford 1991), pp. 87-108; Zon and Geiser, Anti-Cancer Drug Design 6, 539 (1991); Vu and Hirschenbein, Tetrahedron Lett. 32, 3005-3008 (1991).
BV173 cells were cultured in the presence of phosphorothioate b2/a2 antisense 26-mer CGCTGAAGGG CTTCTTCCT ATTGAT (SEQ ID NO:29), the phosphorothioate sense sequence ATCAATAAGGAAGCCCTTCAGCG (SEQUENCE ID NO:34), or the b3/a2 (SEQ ID NO:31) or b1/a2 (SEQ ID N0:33) phosphorothioate antisense 26-mer. […] The sense oligomer SEQ ID NO:34 gave no inhibition (FIG. 7, -.largecircle.-) in comparison to untreated control cells (FIG. 7, -.quadrature.-).

| Substance | colonies of blast cells formed ([1]; 10 days in semi-solid culture (FIG. 2)) | Number of Colonies, Antisense-treated ([1]; Table 1, patient 1, untreated 450 ± 64) | Number of Colonies, Antisense-treated ([1]; Table 1, patient 2, untreated 324 ± 18) | % Inhibition ([1]; Table 1, patient 3) | Number of Colonies, Antisense-treated ([1]; Table 1, patient 4, untreated 212 ± 15) | Number of Colonies, Antisense-treated ([1]; Table 1, patient 5, untreated 380 ± 16) | % Inhibition ([1]; Table 1, patient 5) | inhibition of colony formation ([1]; five L-6 type junction patients, repeated experiments) | inhibition of proliferation of BV173 cells [2] |
| --- | --- | --- | --- | --- | --- | --- | --- | --- | --- |
| SEQ ID NO:3: synthetic 18-mer GAAGGGCTTC TTCCTTAT specific for the 18-nucleotide target sequence of the L-6 bcr-abl junction (antisense GAAGGGCTTCTTCCTTAT; chemistry not given here) | very few colonies, with a much smaller number of cells | 112 ± 18 colonies | 62 ± 8 colonies | 90% | 80 ± 8 colonies | 70 ± 8 colonies | 82% | 60 to 90% |  |
| SEQ ID NO:34: phosphorothioate sense sequence ATCAATAAGGAAGCCCTTCAGCG (23-mer b2a2 sense) (sense ATCAATAAGGAAGCCCTTCAGCG; all phosphorothioate, sugars by position and methylation of C not given here) |  |  |  |  |  |  |  |  | no inhibition |
